A word on the IC50: it is the concentration that gives 50% inhibition. Broadly, the AC50 is the midpoint of the concentration-response curve, whichever way the signal moves.

Calls of active or inactive are those of the source. For most assays here, no stated cut-off is given here; in the data, actives have a measured IC50 and inactives only a lower limit. Bounds are passed on as bounds.

Test [1] concerns the target Eukaryotic translation initiation factor 4H (Homo sapiens, UniProt Q15056). Nature of the test: eIF4H inhibition in translation initiation, SAR follow-up (AID 435011). Format: functional.
Test [2] has as its target Polyadenylate-binding protein 1 (Homo sapiens, UniProt P11940). Nature of the test: PABP inhibition in translation initiation, SAR follow-up (AID 435018). Format: functional.
A further test addresses T1, Coagulation factor XII (Homo sapiens, UniProt P00748).
T1 sequence (P00748 whole entry): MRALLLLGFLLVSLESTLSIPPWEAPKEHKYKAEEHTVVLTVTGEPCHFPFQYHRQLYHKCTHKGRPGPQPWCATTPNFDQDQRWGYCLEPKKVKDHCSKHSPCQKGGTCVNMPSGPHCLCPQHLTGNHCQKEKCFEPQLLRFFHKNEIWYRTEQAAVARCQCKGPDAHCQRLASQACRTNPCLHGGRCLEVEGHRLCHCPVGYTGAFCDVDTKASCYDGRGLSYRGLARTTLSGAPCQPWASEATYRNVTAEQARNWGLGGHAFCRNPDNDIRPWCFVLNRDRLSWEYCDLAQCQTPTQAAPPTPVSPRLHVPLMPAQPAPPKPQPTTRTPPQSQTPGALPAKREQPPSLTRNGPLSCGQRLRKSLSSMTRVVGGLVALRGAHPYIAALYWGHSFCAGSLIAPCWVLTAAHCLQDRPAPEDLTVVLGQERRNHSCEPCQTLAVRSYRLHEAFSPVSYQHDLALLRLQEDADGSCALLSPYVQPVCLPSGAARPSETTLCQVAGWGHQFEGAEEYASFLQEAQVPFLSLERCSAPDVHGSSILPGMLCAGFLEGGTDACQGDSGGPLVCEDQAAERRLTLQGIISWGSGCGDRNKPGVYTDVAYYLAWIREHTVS
Nature of the test: FXIIa inhibitor potency, concentration-response, biochemical (AID 716). Format: functional.

The target of test [3] is Alkaline phosphatase, placental type (Homo sapiens, UniProt P05187). Nature of the test: PLAP enzyme inhibitors, confirmation, biochemical, luminescence (AID 1512). Type of test: functional.
Alkaline phosphatase, placental type, sequence (P05187 whole entry): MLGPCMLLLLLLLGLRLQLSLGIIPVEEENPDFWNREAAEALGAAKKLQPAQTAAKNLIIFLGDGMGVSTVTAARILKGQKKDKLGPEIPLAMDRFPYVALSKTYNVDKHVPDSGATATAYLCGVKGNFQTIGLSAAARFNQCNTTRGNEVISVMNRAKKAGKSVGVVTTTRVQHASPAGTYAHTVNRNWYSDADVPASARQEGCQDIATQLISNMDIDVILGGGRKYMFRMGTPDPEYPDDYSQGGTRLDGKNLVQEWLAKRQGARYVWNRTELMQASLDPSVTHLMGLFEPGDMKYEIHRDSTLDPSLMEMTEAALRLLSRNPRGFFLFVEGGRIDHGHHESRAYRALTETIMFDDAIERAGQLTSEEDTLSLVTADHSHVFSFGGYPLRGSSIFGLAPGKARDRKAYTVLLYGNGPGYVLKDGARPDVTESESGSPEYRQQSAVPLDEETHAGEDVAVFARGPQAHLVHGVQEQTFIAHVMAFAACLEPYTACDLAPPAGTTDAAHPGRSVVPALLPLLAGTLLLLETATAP
For test [4], the target named is T2, Alkaline phosphatase, tissue-nonspecific isozyme (Homo sapiens, UniProt P05186).
T2 sequence (P05186 whole entry): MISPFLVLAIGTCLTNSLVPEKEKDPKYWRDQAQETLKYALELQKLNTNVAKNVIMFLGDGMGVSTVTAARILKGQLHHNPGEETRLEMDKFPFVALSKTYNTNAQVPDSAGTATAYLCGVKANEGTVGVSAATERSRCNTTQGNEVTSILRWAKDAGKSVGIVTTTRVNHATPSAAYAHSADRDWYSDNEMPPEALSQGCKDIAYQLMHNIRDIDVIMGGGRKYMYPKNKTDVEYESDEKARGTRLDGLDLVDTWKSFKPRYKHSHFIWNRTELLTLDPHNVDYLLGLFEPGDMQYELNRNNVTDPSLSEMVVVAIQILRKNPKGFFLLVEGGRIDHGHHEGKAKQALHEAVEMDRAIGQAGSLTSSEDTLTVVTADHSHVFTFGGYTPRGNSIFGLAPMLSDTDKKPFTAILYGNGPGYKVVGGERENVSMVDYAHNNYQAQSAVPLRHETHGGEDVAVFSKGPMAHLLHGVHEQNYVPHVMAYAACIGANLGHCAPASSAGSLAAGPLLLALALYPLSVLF
As to the kind of experiment: human TNAP enzyme inhibitors, SAR follow-up, biochemical, luminescent, dose response (AID 1056).

A further test deals with T3, CAAX prenyl protease 2 (Saccharomyces cerevisiae S288c, UniProt Q03530).
T3 sequence (Q03530 whole entry): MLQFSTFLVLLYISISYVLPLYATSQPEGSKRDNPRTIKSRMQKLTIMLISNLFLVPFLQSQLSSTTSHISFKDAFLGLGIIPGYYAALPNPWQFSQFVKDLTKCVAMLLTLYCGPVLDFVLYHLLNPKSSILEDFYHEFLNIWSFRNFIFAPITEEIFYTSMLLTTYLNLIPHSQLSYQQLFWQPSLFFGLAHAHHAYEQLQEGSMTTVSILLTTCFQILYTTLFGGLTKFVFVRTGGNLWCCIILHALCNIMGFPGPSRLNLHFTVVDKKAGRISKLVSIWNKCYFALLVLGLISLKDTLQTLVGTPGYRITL
Format: biochemical.

Test [5] addresses Glyceraldehyde-3-phosphate dehydrogenase (Homo sapiens, UniProt P04406).

Glyceraldehyde-3-phosphate dehydrogenase, sequence (P04406 whole entry): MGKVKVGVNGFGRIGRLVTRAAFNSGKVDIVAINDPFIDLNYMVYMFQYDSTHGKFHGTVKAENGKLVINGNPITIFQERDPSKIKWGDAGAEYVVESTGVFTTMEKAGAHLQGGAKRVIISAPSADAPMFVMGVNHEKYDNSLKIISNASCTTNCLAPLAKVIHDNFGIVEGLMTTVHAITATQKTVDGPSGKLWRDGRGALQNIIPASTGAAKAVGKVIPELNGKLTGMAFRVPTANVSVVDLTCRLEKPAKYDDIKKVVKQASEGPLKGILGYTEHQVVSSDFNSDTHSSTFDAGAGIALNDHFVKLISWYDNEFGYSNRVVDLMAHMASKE
Polyadenylate-binding protein 1, sequence (P11940 whole entry): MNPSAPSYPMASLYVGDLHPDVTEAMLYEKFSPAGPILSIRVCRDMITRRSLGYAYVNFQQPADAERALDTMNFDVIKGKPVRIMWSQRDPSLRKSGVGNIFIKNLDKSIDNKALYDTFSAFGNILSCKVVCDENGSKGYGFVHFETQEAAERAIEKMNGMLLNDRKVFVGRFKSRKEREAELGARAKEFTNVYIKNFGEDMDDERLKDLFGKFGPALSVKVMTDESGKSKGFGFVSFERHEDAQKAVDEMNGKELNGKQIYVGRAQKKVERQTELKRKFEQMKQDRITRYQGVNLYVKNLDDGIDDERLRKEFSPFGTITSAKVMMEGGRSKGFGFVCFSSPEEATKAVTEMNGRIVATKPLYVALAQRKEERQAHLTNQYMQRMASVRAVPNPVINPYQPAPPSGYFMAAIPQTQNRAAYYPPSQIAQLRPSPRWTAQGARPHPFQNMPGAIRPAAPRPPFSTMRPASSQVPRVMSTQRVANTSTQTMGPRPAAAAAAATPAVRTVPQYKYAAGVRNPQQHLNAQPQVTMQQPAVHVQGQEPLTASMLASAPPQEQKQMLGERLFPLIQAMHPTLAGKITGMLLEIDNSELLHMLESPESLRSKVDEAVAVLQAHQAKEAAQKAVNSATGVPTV

With `COc1cc(/C=N/NC(=O)c2ccccc2)ccc1OCC(=O)Nc1ccc([N+](=O)[O-])cc1`, the IC50 in test [1] was 2.74 µM (active); in test [2], 49.5 µM (active).

For the molecule `CCOC(=O)c1sc2ncnc(N3CCN(C(=O)OCC)CC3)c2c1C`, at Coagulation factor XII, the IC50 is > 50 µM (inactive). Consider `Cc1cc(C)c(C#N)c(SCC(=O)c2ccc(O)c(O)c2)n1`, for which the IC50 is 1.56 µM (active) in test [3] and 6.71 µM (active) in test [4].

As for `CCN(CC)S(=O)(=O)c1ccc(C(=O)NCC(c2cccs2)N2CCOCC2)cc1` (stereo not given), the IC50 on Coagulation factor XII is > 50 µM (inactive). Regarding `Cc1ccc(OCCn2c3ccccc3n3nc(C)c(=O)nc23)cc1`, the AC50 on CAAX prenyl protease 2 is 6.85 µM (active).

Take `COc1ccc(-c2nnc3oc(O)c(CCO)c(C)c2-3)cc1`: the IC50 in test [3] was > 100 µM (inactive); in test [4], > 100 µM (inactive); in test [5] it was > 100 µM (not active).
